According to BigSolDB 2.1:

CCOC(=O)[C@@H](N)CCc1ccccc1.Cl
solubility (mole fraction)
Conditions	283.15 K	288.15 K	293.15 K	298.15 K	303.15 K	313.15 K	323.15 K
in 1,4-dioxane	–	0.00221	0.00266	–	0.00381	0.00845	0.0142
in 2-butanone	0.00022	–	0.00031	–	0.0004	0.00073	0.0013
in acetone	0.00068	–	0.00117	–	0.00182	0.00297	0.00505
in dichloromethane	0.0172	0.0233	0.0303	0.0386	0.0489	–	–
in ethanol	0.031	–	0.0393	–	0.0505	0.0666	0.0867
in isobutanol	0.0101	–	0.014	–	0.0203	0.0311	0.0472
in isopropanol	0.00726	–	0.0096	–	0.0135	0.0192	0.0286
in methyl acetate	4e-05	–	5e-05	–	0.00012	0.00024	0.00034
in n-butanol	0.0128	–	0.0163	–	0.022	0.0253	0.0277
in n-pentanol	0.0161	–	0.0215	–	0.0294	0.0427	0.0595
in n-propanol	0.019	–	0.0262	–	0.0353	0.0487	0.0679
in sec-butanol	0.00416	–	0.00614	–	0.00846	0.013	0.0257
